These results are taken from patent US8273758B2, “Substituted tricyclic derivatives” (Sanofi, priority 2008, dated 2012).

One series concerns the target GSK3β (Homo sapiens, UniProt P49841). Kind of series: Inhibitory activity against GSK3β (33P-ATP phosphorylation of prephosphorylated GS1 peptide). The conditions noted are these: protocol 3: 7.5 μM GS1 peptide, 10 μM ATP, 50 mM Hepes pH 7.2, one hour, room temperature. It counts as biochemical. The procedure: Four different protocols can be used.
In a first protocol: 7.5 μM of prephosphorylated GS1 peptide and 10 μM ATP (containing 300,000 cpm of ^33P-ATP) were incubated in 25 mM Tris-HCl, pH 7.5, 0.6 mM DTT, 6 mM MgCl2, 0.6 mM EGTA, 0.05 mg/ml BSA buffer for 1 hour at room temperature in the presence of GSK3beta (total reaction volume: 100 microliters).
In a second protocol: 4.1 μM of prephosphorylated GS1 peptide and 42 μM ATP (containing 260,000 cpm ^33P-ATP) were incubated in 80 mM Mes-NaOH, pH 6.5, 1 mM Mg acetate, 0.5 mM EGTA, 5 mM 2-mercaptoethanol, 0.02% Tween 20, 10% glycerol buffer for 2 hours at room temperature in the presence of GSK3beta.
In a third protocol: 7.5 μM of prephosphorylated GS1 peptide and 10 μM ATP (containing 300,000 cpm of ^33P-ATP) were incubated in 50 mM Hepes, pH 7.2, 1 mM DTT, 1 mM MgCl2, 1 mM EGTA, 0.01% Tween 20 buffer for one hour at room temperature in the presence of GSK3beta (total reaction volume: 100 microliters). […]
The reaction was stopped with 100 microliters of a solution made of 25 g polyphosphoric acid (85% P2O5), 126 ml 85% H3PO4, H2O to 500 ml and then diluted to 1:100 before use. […] Incorporated ^33P radioactivity was determined by liquid scintillation spectrometry. […]

Sequence of GSK3β (P49841 whole entry): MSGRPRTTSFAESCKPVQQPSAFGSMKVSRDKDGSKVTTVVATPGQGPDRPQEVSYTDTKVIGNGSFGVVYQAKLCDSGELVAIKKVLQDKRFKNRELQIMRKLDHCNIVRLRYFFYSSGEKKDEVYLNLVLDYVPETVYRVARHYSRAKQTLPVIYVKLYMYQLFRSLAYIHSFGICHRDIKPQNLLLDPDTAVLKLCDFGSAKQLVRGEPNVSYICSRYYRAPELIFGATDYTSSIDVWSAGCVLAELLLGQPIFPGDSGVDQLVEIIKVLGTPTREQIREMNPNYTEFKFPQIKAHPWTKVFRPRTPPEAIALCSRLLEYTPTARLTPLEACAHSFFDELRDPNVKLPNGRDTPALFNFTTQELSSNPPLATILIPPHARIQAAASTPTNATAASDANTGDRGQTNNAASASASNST

For the molecule `O=C(CN1c2ccccc2Cn2c1nc(-c1ccncn1)cc2=O)c1ccccc1` [Compound No. 3, 9-(2-Oxo-2-phenyl-ethyl)-2-pyrimidin-4-yl-9,10-dihydro-1,4a,9-triaza-anthracen-4-one], the melting point (commonly the temperature of the solid-liquid transition) lay within 263 to 265 °C. Further, the IC50 – broadly, the concentration at which inhibition is half-maximal – against GSK3β was 6 nM.
